Data taken from PubChem BioAssay AID1259407 (Chemical Carcinogenesis Research Information System (CCRIS), 2018).
Calls of active or inactive are those of the source. No rule for the calls is given here.

Test system: CCRIS mutagenicity, Ames/micronucleus/aberration tests
Assay: CCRIS mutagenicity studies
[1] = Test System: AMES SALMONELLA TYPHIMURIUM, Strain/Indicator: TA98, Metabolic Activation: NONE, Method: STANDARD PLATE
[2] = Test System: AMES SALMONELLA TYPHIMURIUM, Strain/Indicator: TA100, Metabolic Activation: NONE, Method: STANDARD PLATE
[3] = Test System: AMES SALMONELLA TYPHIMURIUM, Strain/Indicator: TA98, Metabolic Activation: NONE, Method: PREINCUBATION
[4] = Test System: AMES SALMONELLA TYPHIMURIUM, Strain/Indicator: TA100, Metabolic Activation: NONE, Method: PREINCUBATION
[5] = Test System: AMES SALMONELLA TYPHIMURIUM, Strain/Indicator: TA100, Metabolic Activation: RAT, LIVER, S-9, AROCLOR 1254, Method: PREINCUBATION
[6] = Test System: HUMAN H1A1V2 CELLS, Strain/Indicator: TK LOCUS, Metabolic Activation: NONE, Method: SUSPENSION/PLATE

Measured: mutagenic call

CCCCCCCCSCn1cc[n+](C)c1
inactive: [1] inactive; negative | Test System: AMES SALMONELLA TYPHIMURIUM, Strain/Indicator: TA98, Metabolic Activation: RAT, LIVER, S-9, AROCLOR 1254, Method: STANDARD PLATE inactive; negative | [2] inactive; negative | Test System: AMES SALMONELLA TYPHIMURIUM, Strain/Indicator: TA100, Metabolic Activation: RAT, LIVER, S-9, AROCLOR 1254, Method: STANDARD PLATE inactive; negative | Test System: AMES SALMONELLA TYPHIMURIUM, Strain/Indicator: TA1535, Metabolic Activation: NONE, Method: STANDARD PLATE inactive; negative | Test System: AMES SALMONELLA TYPHIMURIUM, Strain/Indicator: TA1535, Metabolic Activation: RAT, LIVER, S-9, AROCLOR 1254, Method: STANDARD PLATE inactive; negative | Test System: AMES SALMONELLA TYPHIMURIUM, Strain/Indicator: TA1537, Metabolic Activation: NONE, Method: STANDARD PLATE inactive; negative | Test System: AMES SALMONELLA TYPHIMURIUM, Strain/Indicator: TA1537, Metabolic Activation: RAT, LIVER, S-9, AROCLOR 1254, Method: STANDARD PLATE inactive; negative | Test System: AMES SALMONELLA TYPHIMURIUM, Strain/Indicator: TA1538, Metabolic Activation: NONE, Method: STANDARD PLATE inactive; negative | Test System: AMES SALMONELLA TYPHIMURIUM, Strain/Indicator: TA1538, Metabolic Activation: RAT, LIVER, S-9, AROCLOR 1254, Method: STANDARD PLATE inactive; negative

O=[N+]([O-])c1ccc2oc3ccc([N+](=O)[O-])cc3c2c1
active: Test System: AMES SALMONELLA TYPHIMURIUM, Strain/Indicator: TA98(1,8-DNP6), Metabolic Activation: NONE, Method: PREINCUBATION active; positive | Test System: AMES SALMONELLA TYPHIMURIUM, Strain/Indicator: TA98(1,8-DNP6), Metabolic Activation: NONE, Method: SUSPENSION active; positive | Test System: AMES SALMONELLA TYPHIMURIUM, Strain/Indicator: TA98(1,8-DNP6), Metabolic Activation: RAT, LIVER, S-9, PCB (5%), Method: PREINCUBATION active; positive | Test System: AMES SALMONELLA TYPHIMURIUM, Strain/Indicator: TA98(NR), Metabolic Activation: RAT, LIVER, S-9 (10%), Method: PREINCUBATION active; positive | Test System: AMES SALMONELLA TYPHIMURIUM, Strain/Indicator: TA98(NR), Metabolic Activation: RAT, LIVER, S-9, 3-METHYLCHOLANTHRENE (10%), Method: PREINCUBATION active; positive | Test System: AMES SALMONELLA TYPHIMURIUM, Strain/Indicator: TA98(NR), Metabolic Activation: RAT, LIVER, S-9, BETA-NAPHTHOFLAVONE (10%), Method: PREINCUBATION active; positive | Test System: AMES SALMONELLA TYPHIMURIUM, Strain/Indicator: TA98(NR), Metabolic Activation: RAT, LIVER, S-9, PCB (5 OR 10%), Method: PREINCUBATION active; positive | Test System: AMES SALMONELLA TYPHIMURIUM, Strain/Indicator: TA98(NR), Metabolic Activation: RAT, LIVER, S-9, PHENOBARBITAL (10%), Method: PREINCUBATION active; positive | [3] active; positive | Test System: AMES SALMONELLA TYPHIMURIUM, Strain/Indicator: TA98, Metabolic Activation: NONE, Method: SUSPENSION active; positive | Test System: AMES SALMONELLA TYPHIMURIUM, Strain/Indicator: TA98, Metabolic Activation: RAT, LIVER, S-9, PCB (5%), Method: PREINCUBATION active; positive | Test System: AMES SALMONELLA TYPHIMURIUM, Strain/Indicator: TA98, Metabolic Activation: RAT, LIVER, S-9, PCB, Method: SUSPENSION active; positive
inactive: Test System: AMES SALMONELLA TYPHIMURIUM, Strain/Indicator: TA98(NR), Metabolic Activation: NONE, Method: PREINCUBATION inactive; negative | Test System: AMES SALMONELLA TYPHIMURIUM, Strain/Indicator: TA98(NR), Metabolic Activation: NONE, Method: SUSPENSION inactive; negative | [4] inactive; negative | Test System: AMES SALMONELLA TYPHIMURIUM, Strain/Indicator: TA100, Metabolic Activation: NONE, Method: SUSPENSION inactive; negative | Test System: AMES SALMONELLA TYPHIMURIUM, Strain/Indicator: TA100, Metabolic Activation: RAT, LIVER, S-9, PCB (5%), Method: PREINCUBATION inactive; negative | Test System: AMES SALMONELLA TYPHIMURIUM, Strain/Indicator: TA100, Metabolic Activation: RAT, LIVER, S-9, PCB, Method: SUSPENSION inactive; negative

Cc1cc([N+](=O)[O-])ccc1N
active: End Point: IN VITRO CHROMOSOMAL ABERRATIONS, Test System: CHL CELLS, Metabolic Activation: NONE active; positive (ploidy changes) | End Point: IN VITRO CHROMOSOMAL ABERRATIONS, Test System: CHL/IU CELLS, Metabolic Activation: NONE active; positive (numerical aberrations)
inactive: End Point: IN VITRO CHROMOSOMAL ABERRATIONS, Test System: CHL CELLS, Metabolic Activation: RAT, LIVER, S-9, SODIUM PHENOBARBITAL AND 5,6-BENZOFLAVONE inactive; negative; authors report equivocal results for ploidy changes at 0.25 mg/ml and | End Point: IN VITRO MICRONUCLEUS, Test System: CHL/IU CELLS, Metabolic Activation: NONE inactive; negative | Test System: AMES SALMONELLA TYPHIMURIUM, Strain/Indicator: TA98, Metabolic Activation: RAT, LIVER, S-9, PCB, Method: PREINCUBATION inactive; negative | [4] inactive; negative | Test System: AMES SALMONELLA TYPHIMURIUM, Strain/Indicator: TA100, Metabolic Activation: RAT, LIVER, S-9, KANECHLOR 500, Method: PREINCUBATION inactive; negative | Test System: UDS RODENT HEPATOCYTES, Strain/Indicator: THY INCORP (NON-S-PHASE), Metabolic Activation: NONE, Method: AUTORADIOGRAPHY inactive; negative

CC(C)=CCC[C@@](C)(O)[C@H]1CCC=CC1=O
active: Test System: AMES SALMONELLA TYPHIMURIUM, Strain/Indicator: TM677, Metabolic Activation: NONE, Method: STANDARD PLATE active; positive | Test System: AMES SALMONELLA TYPHIMURIUM, Strain/Indicator: TM677, Metabolic Activation: RAT, LIVER, S-9, AROCLOR 1254, Method: STANDARD PLATE active; positive

Oc1ccc2c3cc4ccccc4cc3c3ccccc3c2c1O
active: [5] active; positive

c1ccc2c(c1)cc1ccc3c4ccccc4cc4ccc2c1c43
active: [6] active; positive

c1ccc2c(c1)-c1cc3ccccc3c3cc4ccccc4c-2c13
active: Test System: AMES SALMONELLA TYPHIMURIUM, Strain/Indicator: TA100, Metabolic Activation: MOUSE, LIVER, S-9, 3-METHYLCHOLANTHRENE, Method: STANDARD PLATE active; positive | Test System: AMES SALMONELLA TYPHIMURIUM, Strain/Indicator: TA100, Metabolic Activation: RAT, LIVER, S-9, 3-METHYLCHOLANTHRENE, Method: STANDARD PLATE active; positive | [6] active; positive

Cc1nccnc1C
inactive: [3] inactive; negative | Test System: AMES SALMONELLA TYPHIMURIUM, Strain/Indicator: TA98, Metabolic Activation: RAT, LIVER, S-9, AROCLOR 1254, Method: PREINCUBATION inactive; negative | [4] inactive; negative | [5] inactive; negative | Test System: AMES SALMONELLA TYPHIMURIUM, Strain/Indicator: TA102, Metabolic Activation: NONE, Method: PREINCUBATION inactive; negative | Test System: AMES SALMONELLA TYPHIMURIUM, Strain/Indicator: TA102, Metabolic Activation: RAT, LIVER, S-9, AROCLOR 1254, Method: PREINCUBATION inactive; negative

N#Cc1ccc(CO)cc1
inactive: [2] inactive; negative

[N-]=[N+]=NC[C@H]1O[C@H](O)[C@H](O)[C@@H](O)[C@@H]1O
active: [2] active; positive
inactive: [1] inactive; negative

O=C1C(Cl)=C(Cl)C(=O)C1(Cl)Cl
inactive: [2] inactive; negative

CCCCCN(CCCCO)N=O
active: Test System: AMES SALMONELLA TYPHIMURIUM, Strain/Indicator: TA1535, Metabolic Activation: RAT, LIVER, S-9, KANECHLOR 500 OR PHENOBARBITAL, Method: LIQUID SUSPENSION active; positive
